According to patent US9452986B2, “6-heteroaryloxy- or 6-aryloxy-quinoline-2-carboxamides and method of use” (AbbVie Inc., priority 2014, dated 2016):
Where two headings read alike, the source gives them in different places.

Target: recombinant human Nav1.7 (Homo sapiens (Human), UniProt Q15858)
Test: FRET-based membrane potential assay, recombinant human sodium channel Nav1.7
Format: cell-based
Conditions: read-out: FRET-Membrane Potential Nav1.7 IC50
Procedure, shortened: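 Channel activation used veratridine at its EC80, set by a dilution curve each experiment, together with Leiurus scorpion venom, added 3 min after compound. Membrane-potential ratio signals from FLIPR Tetra in HEPES-buffered HBSS were fitted to a four-parameter Hill equation for percent inhibition and IC50.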

[1] = HEK293 cells stably expressing recombinant human Nav1.7, veratridine + scorpion venom depolarization

Sequence of recombinant human Nav1.7 (Q15858 whole entry): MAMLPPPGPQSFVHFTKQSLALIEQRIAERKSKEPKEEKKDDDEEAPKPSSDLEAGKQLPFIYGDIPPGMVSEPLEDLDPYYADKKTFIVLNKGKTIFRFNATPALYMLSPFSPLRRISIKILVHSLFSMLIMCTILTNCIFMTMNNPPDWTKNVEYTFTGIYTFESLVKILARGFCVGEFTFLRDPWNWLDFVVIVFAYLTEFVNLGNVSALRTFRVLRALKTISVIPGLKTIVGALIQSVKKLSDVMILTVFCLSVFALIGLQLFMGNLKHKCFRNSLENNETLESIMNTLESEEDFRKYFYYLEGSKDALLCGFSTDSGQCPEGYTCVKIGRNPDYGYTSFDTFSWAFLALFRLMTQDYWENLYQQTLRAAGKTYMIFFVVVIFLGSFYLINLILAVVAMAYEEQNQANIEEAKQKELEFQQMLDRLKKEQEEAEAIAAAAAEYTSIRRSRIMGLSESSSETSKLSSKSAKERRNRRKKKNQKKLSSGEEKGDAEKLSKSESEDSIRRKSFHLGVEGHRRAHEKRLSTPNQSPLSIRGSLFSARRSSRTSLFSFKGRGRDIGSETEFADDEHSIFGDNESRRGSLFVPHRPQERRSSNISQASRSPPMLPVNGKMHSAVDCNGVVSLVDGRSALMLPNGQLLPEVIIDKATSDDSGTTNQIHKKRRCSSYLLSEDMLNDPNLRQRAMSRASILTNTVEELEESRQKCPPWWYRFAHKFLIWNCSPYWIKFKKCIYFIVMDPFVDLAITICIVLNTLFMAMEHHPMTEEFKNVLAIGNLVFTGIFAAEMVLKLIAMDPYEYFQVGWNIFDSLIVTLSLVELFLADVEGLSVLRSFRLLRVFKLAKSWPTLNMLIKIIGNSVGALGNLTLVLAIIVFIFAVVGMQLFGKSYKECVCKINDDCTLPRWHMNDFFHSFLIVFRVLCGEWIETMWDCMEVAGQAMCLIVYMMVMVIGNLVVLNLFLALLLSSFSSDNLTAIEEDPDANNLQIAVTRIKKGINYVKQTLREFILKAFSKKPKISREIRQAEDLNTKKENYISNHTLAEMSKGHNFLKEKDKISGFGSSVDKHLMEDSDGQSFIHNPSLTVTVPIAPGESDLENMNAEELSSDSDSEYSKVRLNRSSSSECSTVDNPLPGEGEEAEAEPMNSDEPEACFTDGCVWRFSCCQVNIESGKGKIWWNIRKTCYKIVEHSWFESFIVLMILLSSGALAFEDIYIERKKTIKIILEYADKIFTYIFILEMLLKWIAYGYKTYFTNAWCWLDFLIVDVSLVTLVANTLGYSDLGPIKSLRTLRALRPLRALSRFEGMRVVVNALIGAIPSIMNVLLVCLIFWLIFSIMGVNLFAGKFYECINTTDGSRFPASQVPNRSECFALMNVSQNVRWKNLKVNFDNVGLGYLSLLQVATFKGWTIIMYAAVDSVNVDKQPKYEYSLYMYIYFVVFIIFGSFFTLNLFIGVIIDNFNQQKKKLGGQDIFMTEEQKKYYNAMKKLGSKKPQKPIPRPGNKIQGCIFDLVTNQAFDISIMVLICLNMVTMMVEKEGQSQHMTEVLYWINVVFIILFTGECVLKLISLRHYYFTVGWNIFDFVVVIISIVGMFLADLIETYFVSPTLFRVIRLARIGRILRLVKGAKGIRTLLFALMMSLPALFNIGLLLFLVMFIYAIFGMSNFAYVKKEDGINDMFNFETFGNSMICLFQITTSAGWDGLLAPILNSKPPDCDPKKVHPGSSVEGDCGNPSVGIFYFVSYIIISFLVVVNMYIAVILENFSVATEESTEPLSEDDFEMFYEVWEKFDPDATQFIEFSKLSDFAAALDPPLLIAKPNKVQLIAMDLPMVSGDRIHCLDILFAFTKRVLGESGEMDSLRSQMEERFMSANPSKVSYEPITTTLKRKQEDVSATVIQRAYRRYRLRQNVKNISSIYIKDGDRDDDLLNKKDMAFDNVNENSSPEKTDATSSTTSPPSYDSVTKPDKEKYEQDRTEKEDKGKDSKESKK

Compound	IC50 [1]	IC50
CC(C)(C)N1CCN(C(=O)c2ccc3cc(Oc4ccc(C#N)cc4)ccc3n2)CC1 [Example 140, 4-({2-[(4-tert-butylpiperazin-1-yl)carbonyl]quinolin-6-yl}oxy)benzonitrile]	559 nM	
O=C(c1ccc2cc(Oc3ccc(C(F)(F)F)cn3)ccc2n1)N1CCN(c2cnccn2)CC1 [Example 268, [4-(pyrazin-2-yl)piperazin-1-yl](6-{[5-(trifluoromethyl)pyridin-2-yl]oxy}quinolin-2-yl)methanone]	2980 nM	
O=C(N[C@H]1CS(=O)(=O)C[C@@H]1O)c1ccc2cc(Oc3ccc(C(F)(F)F)cn3)ccc2n1 [Example 425, N-[(3R,4R)-4-hydroxy-1,1-dioxidotetrahydrothiophen-3-yl]-6-{[5-(trifluoromethyl)pyridin-2-yl]oxy}quinoline-2-carboxamide]		9090 nM
O=C(NC1CC[S+]([O-])CC1)c1ccc2cc(Oc3ccc(C(F)F)cn3)ccc2n1 (stereo not drawn) [Example 481, 6-{[5-(difluoromethyl)pyridin-2-yl]oxy}-N-(1-oxidotetrahydro-2H-thiopyran-4-yl)quinoline-2-carboxamide]	2630 nM	
O=C(c1ccc2cc(Oc3ccc(C(F)(F)F)cn3)ccc2n1)N1C[C@H]2C[C@@H]1CN2 [Example 241, (1R,4R)-2,5-diazabicyclo[2.2.1]hept-2-yl(6-{[5-(trifluoromethyl)pyridin-2-yl]oxy}quinolin-2-yl)methanone]	1850 nM	
O=C(c1ccc2cc(Oc3ccc(C(F)(F)F)nc3)ccc2n1)N1CC=CC1 [Example 539, 2,5-dihydro-1H-pyrrol-1-yl(6-{[6-(trifluoromethyl)pyridin-3-yl]oxy}quinolin-2-yl)methanone]	> 20000 nM	
N#Cc1ccc(Oc2ccc3nc(C(=O)N[C@@H]4CCS(=O)(=O)C4)ccc3c2)cc1 [Example 160, 6-(4-cyanophenoxy)-N-[(3R)-1,1-dioxidotetrahydrothiophen-3-yl]quinoline-2-carboxamide]		710 nM
O=C(N[C@H]1CS(=O)(=O)C[C@H]1O)c1ccc2cc(Oc3ccc(C(F)(F)F)nc3)ccc2n1 [Example 537, N-[(3R,4S)-4-hydroxy-1,1-dioxidotetrahydrothiophen-3-yl]-6-{[6-(trifluoromethyl)pyridin-3-yl]oxy}quinoline-2-carboxamide]	2710 nM	
CC[C@H]1CN(C(=O)c2ccc3cc(Oc4ccc(C(F)(F)F)cn4)ccc3n2)CCN1 [Example 273, [(3S)-3-ethylpiperazin-1-yl](6-{[5-(trifluoromethyl)pyridin-2-yl]oxy}quinolin-2-yl)methanone]	488 nM	
O=C1CN(C(=O)c2ccc3cc(Oc4ccc(C(F)(F)F)cn4)ccc3n2)CCCN1 [Example 343, 4-[(6-{[5-(trifluoromethyl)pyridin-2-yl]oxy}quinolin-2-yl)carbonyl]-1,4-diazepan-2-one]	> 20000 nM	
O=C(c1ccc2cc(Oc3ccc(C(F)(F)F)cn3)ccc2n1)N1C[C@@H](O)C[C@@H]1c1cc(F)ccc1F [Example 223, [(2R,4S)-2-(2,5-difluorophenyl)-4-hydroxypyrrolidin-1-yl](6-{[5-(trifluoromethyl)pyridin-2-yl]oxy}quinolin-2-yl)methanone]	2790 nM	
COc1ccccc1N1CC(NC(=O)c2ccc3cc(Oc4ccc(C(F)(F)F)cn4)ccc3n2)CC1=O (stereo not drawn) [Example 502, N-[1-(2-methoxyphenyl)-5-oxopyrrolidin-3-yl]-6-{[5-(trifluoromethyl)pyridin-2-yl]oxy}quinoline-2-carboxamide]	429 nM	
O=C(NC1CCS(=O)(=O)C1)c1ccc2cc(Oc3ncc(C(F)(F)F)cc3Cl)ccc2n1 (stereo not drawn) [Example 154, 6-{[3-chloro-5-(trifluoromethyl)pyridin-2-yl]oxy}-N-(1,1-dioxidotetrahydrothiophen-3-yl)quinoline-2-carboxamide]	2320 nM	
O=C(c1ccc2cc(Oc3ncc(C(F)(F)F)cc3F)ccc2n1)N1CCNCC1 [Example 250, (6-{[3-fluoro-5-(trifluoromethyl)pyridin-2-yl]oxy}quinolin-2-yl)(piperazin-1-yl)methanone]		1390 nM
O=C(NC1CC(F)C1)c1ccc2cc(Oc3ccc(C(F)(F)F)cn3)ccc2n1 (stereo not drawn) [Example 604, N-(3-fluorocyclobutyl)-6-{[5-(trifluoromethyl)pyridin-2-yl]oxy}quinoline-2-carboxamide]	3010 nM	
CS(=O)(=O)CCCCNC(=O)c1ccc2cc(Oc3ccc(C(F)(F)F)cn3)ccc2n1 [Example 612, N-[4-(methylsulfonyl)butyl]-6-{[5-(trifluoromethyl)pyridin-2-yl]oxy}quinoline-2-carboxamide]		2930 nM
O=C(c1ccc2cc(Oc3ccc(C(F)(F)F)cn3)ccc2n1)N1CCc2ccncc2C1 [Example 222, 3,4-dihydro-2,7-naphthyridin-2(1H)-yl(6-{[5-(trifluoromethyl)pyridin-2-yl]oxy}quinolin-2-yl)methanone]	2150 nM	
O=C(c1ccc2cc(Oc3ccc(C(F)(F)F)cn3)ccc2n1)N1CCOCC1 [Example 296, morpholin-4-yl(6-{[5-(trifluoromethyl)pyridin-2-yl]oxy}quinolin-2-yl)methanone]		12400 nM

Compound	IC50 [1]	IC50
O=C(c1ccc2cc(Oc3ccc(C(F)(F)F)cn3)ccc2n1)N1CCNCC1C(F)(F)F (stereo not drawn) [Example 598, [2-(trifluoromethyl)piperazin-1-yl](6-{[5-(trifluoromethyl)pyridin-2-yl]oxy}quinolin-2-yl)methanone]	2980 nM	
O=C(c1ccc2cc(Oc3ccc(C(F)(F)F)cn3)ccc2n1)N1CCC12CNC2 [Example 279, 1,6-diazaspiro[3.3]hept-1-yl(6-{[5-(trifluoromethyl)pyridin-2-yl]oxy}quinolin-2-yl)methanone]	5680 nM	
O=C1CC(NC(=O)c2ccc3cc(Oc4ccc(C(F)F)cn4)ccc3n2)C1 [Example 592, 6-{[5-(difluoromethyl)pyridin-2-yl]oxy}-N-(3-oxocyclobutyl)quinoline-2-carboxamide]	3440 nM	
O=C(c1ccc2cc(Oc3ccc(C(F)(F)F)cn3)ccc2n1)N1CCC[C@H](O)C1 [Example 582, [(3S)-3-hydroxypiperidin-1-yl](6-{[5-(trifluoromethyl)pyridin-2-yl]oxy}quinolin-2-yl)methanone]		10300 nM
O=C1CC(NC(=O)c2ccc3cc(Oc4ccc(C(F)(F)F)cn4)ccc3n2)C1 [Example 432, N-(3-oxocyclobutyl)-6-{[5-(trifluoromethyl)pyridin-2-yl]oxy}quinoline-2-carboxamide]	2870 nM	
O=C(c1ccc2cc(Oc3ccc(C(F)(F)F)cn3)ccc2n1)N1CCC(O)CC1 [Example 256, (4-hydroxypiperidin-1-yl)(6-{[5-(trifluoromethyl)pyridin-2-yl]oxy}quinolin-2-yl)methanone]		16400 nM
O=C(NC[C@H]1CCCN1)c1ccc2cc(Oc3ccc(C(F)(F)F)cn3)ccc2n1 [Example 335, N-[(2R)-pyrrolidin-2-ylmethyl]-6-{[5-(trifluoromethyl)pyridin-2-yl]oxy}quinoline-2-carboxamide]	573 nM	
O=C(N[C@@H]1CCOC1=O)c1ccc2cc(Oc3ccc(C(F)(F)F)cn3)ccc2n1 [Example 530, N-[(3R)-2-oxotetrahydrofuran-3-yl]-6-{[5-(trifluoromethyl)pyridin-2-yl]oxy}quinoline-2-carboxamide]	911 nM	
O=C(NCCC(=O)N1CCCC1)c1ccc2cc(Oc3ccc(C(F)F)cn3)ccc2n1 [Example 460, 6-{[5-(difluoromethyl)pyridin-2-yl]oxy}-N-[3-oxo-3-(pyrrolidin-1-yl)propyl]quinoline-2-carboxamide]	2400 nM	
N#Cc1ccc(Oc2ccc3nc(C(=O)NCc4ccccn4)ccc3c2)cc1 [Example 97, 6-(4-cyanophenoxy)-N-(pyridin-2-ylmethyl)quinoline-2-carboxamide]		842 nM
O=C(c1ccc2cc(Oc3ccc(C(F)(F)F)cn3)ccc2n1)N1CCCNC1 [Example 233, tetrahydropyrimidin-1(2H)-yl(6-{[5-(trifluoromethyl)pyridin-2-yl]oxy}quinolin-2-yl)methanone]	586 nM	
O=C(NCC(=O)N1CC(O)C1)c1ccc2cc(Oc3ccc(C(F)(F)F)cn3)ccc2n1 [Example 566, N-[2-(3-hydroxyazetidin-1-yl)-2-oxoethyl]-6-{[5-(trifluoromethyl)pyridin-2-yl]oxy}quinoline-2-carboxamide]		2370 nM
O=C(NCCC(=O)N1CCCC1)c1ccc2cc(Oc3ccc(C(F)(F)F)nc3)ccc2n1 [Example 516, N-[3-oxo-3-(pyrrolidin-1-yl)propyl]-6-{[6-(trifluoromethyl)pyridin-3-yl]oxy}quinoline-2-carboxamide]	2000 nM	
COC[C@@H]1CN(C(=O)c2ccc3cc(Oc4ccc(C(F)(F)F)cn4)ccc3n2)CCN1 [Example 593, [(3S)-3-(methoxymethyl)piperazin-1-yl](6-{[5-(trifluoromethyl)pyridin-2-yl]oxy}quinolin-2-yl)methanone]		238 nM
CS(=O)(=O)NC(=O)c1ccc2cc(Oc3ccc(C#N)cc3)ccc2n1 [Example 115, 6-(4-cyanophenoxy)-N-(methylsulfonyl)quinoline-2-carboxamide]	11200 nM	
COC(=O)N1CCN(C(=O)c2ccc3cc(Oc4ccc(C(F)(F)F)cn4)ccc3n2)CC1 [Example 186, methyl 4-[(6-{[5-(trifluoromethyl)pyridin-2-yl]oxy}quinolin-2-yl)carbonyl]piperazine-1-carboxylate]	3970 nM	
O=C(c1ccc2cc(Oc3ccc(C(F)(F)F)cn3)ccc2n1)N1CCCC(F)(F)C1 [Example 312, (3,3-difluoropiperidin-1-yl)(6-{[5-(trifluoromethyl)pyridin-2-yl]oxy}quinolin-2-yl)methanone]	6930 nM	
O=C(c1ccc2cc(Oc3ccc(C(F)(F)F)cn3)ccc2n1)N1CC[C@@H](O)C1 [Example 282, [(3R)-3-hydroxypyrrolidin-1-yl](6-{[5-(trifluoromethyl)pyridin-2-yl]oxy}quinolin-2-yl)methanone]	8520 nM	
